In ChEMBL document CHEMBL1125162, “High-potency dipeptide sweeteners. 2. L-aspartylfuryl-, thienyl-, and imidazolylglycine esters” (J Med Chem, 1990) one finds Potency data, which are given here for 12 compounds.

This assay in a line: Sweetness potency compared to 5-10% sucrose. Type of assay: functional.
`CC12CCC(C1)C(C)(C)C2OC(=O)C(Cc1cccs1)NC(=O)[C@@H](N)CC(=O)O` (some centres not stated) displayed a Potency of 0. As to `CC12CCC(C1)C(C)(C)C2OC(=O)C(NC(=O)[C@@H](N)CC(=O)O)c1ccsc1` (some centres not stated), the Potency was 2300. `CC1(C)C2CC[C@](C)(C2)[C@@H]1OC(=O)C(NC(=O)[C@@H](N)CC(=O)O)c1ccccc1` (stereo in doubt; 5) had a Potency of 3700. Compound `CC1(C)C2CC[C@](C)(C2)[C@@H]1OC(=O)C(NC(=O)[C@@H](N)CC(=O)O)c1ccccc1` (stereo in doubt; 4) displayed a Potency of 1200.

In turn, `CC12CCC(C1)C(C)(C)C2OC(=O)C(NC(=O)[C@@H](N)CC(=O)O)c1cccs1` (some centres not stated) came in with a Potency of 2000. `COC(=O)C(NC(=O)[C@@H](N)CC(=O)O)C(=O)O[C@@H]1C(C)(C)C2CC[C@]1(C)C2` (stereo in doubt; 2) displayed a Potency of 30000. In the case of `CC1CCC(C)C1OC(=O)C(NC(=O)[C@@H](N)CC(=O)O)c1ccco1` (some centres not stated), the Potency came to 400.

Turning to `CC12CCC(C1)C(C)(C)C2OC(=O)C(NC(=O)[C@@H](N)CC(=O)O)C1CCCO1` (some centres not stated), the Potency is 0.

As for `CC12CCC(C1)C(C)(C)[C@@H]2OC(=O)C(NC(=O)[C@@H](N)CC(=O)O)c1ccco1` (some centres not stated), the Potency turned out to be 630. In turn, `CC12CCC(C1)C(C)(C)C2OC(=O)C(NC(=O)[C@@H](N)CC(=O)O)c1c[nH]cn1` (some centres not stated) gave a Potency of 350. To `COC(=O)C(NC(=O)[C@@H](N)CC(=O)O)C(=O)O[C@@H]1C(C)(C)C2CC[C@]1(C)C2` (stereo in doubt; 3) belongs 50000; to `CC12CCC(C1)C(C)(C)[C@H]2OC(=O)[C@H](NC(=O)[C@@H](N)CC(=O)O)c1ccco1` (some centres not stated), 16500.
